Source: PubChem BioAssay AID1963985 (Molecular Pharmacology Branch, DTP, NCI, 2024)
pIC50: −log10 of the molar value.

Test system: 252836-082-R-J2-PDC tumor spheroids, viability
Experiment: Anticancer human tumor 252836-082-R-J2-PDC patient-derived head and neck squamous cell carcinoma cell line growth inhibition [PI3K]
Settings: spheroids with HUVEC and MSC; for pIC50: curve of first compound; for viability, T/C: stronger effect = lower value
Outline: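 Targeted small molecules plus PI3K inhibitors, half-log dose series from Cmax (default top 10 microM), were applied to heterotypic spheroids of cancer cells with HUVEC and MSCs. Viability indicated growth inhibition.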

[1] = second compound 0.00316 µM, first compound 0.0316 µM
[2] = second compound 0.00316 µM, first compound 0.1 µM
[3] = second compound 0.00316 µM, first compound 0.316 µM
[4] = second compound 0.00316 µM, first compound 1 µM
[5] = second compound 0.00316 µM, first compound 3.16 µM
[6] = second compound 0.00316 µM, first compound 10 µM
[7] = second compound 0.01 µM, first compound 0.0316 µM
[8] = second compound 0.01 µM, first compound 0.1 µM
[9] = second compound 0.01 µM, first compound 0.316 µM
[10] = second compound 0.01 µM, first compound 1 µM
[11] = second compound 0.01 µM, first compound 3.16 µM
[12] = second compound 0.01 µM, first compound 10 µM
[13] = second compound 0.0316 µM, first compound 0.0316 µM
[14] = second compound 0.0316 µM, first compound 0.1 µM
[15] = second compound 0.0316 µM, first compound 0.316 µM
[16] = second compound 0.0316 µM, first compound 1 µM
[17] = second compound 0.0316 µM, first compound 3.16 µM
[18] = second compound 0.0316 µM, first compound 10 µM
[19] = second compound 0.1 µM, first compound 0.0316 µM
[20] = second compound 0.1 µM, first compound 0.1 µM
[21] = second compound 0.1 µM, first compound 0.316 µM
[22] = second compound 0.1 µM, first compound 1 µM
[23] = second compound 0.1 µM, first compound 3.16 µM
[24] = second compound 0.1 µM, first compound 10 µM
[25] = second compound 0.316 µM, first compound 0.0316 µM
[26] = second compound 0.316 µM, first compound 0.1 µM
[27] = second compound 0.316 µM, first compound 0.316 µM
[28] = second compound 0.316 µM, first compound 1 µM
[29] = second compound 0.316 µM, first compound 3.16 µM
[30] = second compound 0.316 µM, first compound 10 µM
[31] = second compound 1 µM, first compound 0.0316 µM
[32] = second compound 1 µM, first compound 0.1 µM
[33] = second compound 1 µM, first compound 0.316 µM
[34] = second compound 1 µM, first compound 1 µM
[35] = second compound 1 µM, first compound 3.16 µM
[36] = second compound 1 µM, first compound 10 µM
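Note: spheroids exposed to agents for seven days before readout.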
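Throughout, for viability, T/C: percent of vehicle DMSO control viability so 100% = untreated growth.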

C=CC(=O)N1CCN(c2nc(=O)n(-c3c(C)ccnc3C(C)C)c3nc(-c4c(O)cccc4F)c(F)cc23)C(C)C1 (stereo unspecified) + COc1c(OCCCN2CCOCC2)ccc2c3n(c(=NC(=O)c4cnc(N)nc4)nc12)CCN3
pIC50 (second compound 0.00316 µM): < 5.00
pIC50 (second compound 0.01 µM): < 5.00
pIC50 (second compound 0.0316 µM): < 5.00
pIC50 (second compound 0.1 µM): > 7.50
pIC50 (second compound 0.316 µM): > 7.50
pIC50 (second compound 1 µM): > 7.50
viability, T/C [1]: 92.7%
viability, T/C [2]: 94.5%
viability, T/C [3]: 96.1%
viability, T/C [4]: 99.7%
viability, T/C [5]: 118%
viability, T/C [6]: 94.9%
viability, T/C [7]: 74.4%
viability, T/C [8]: 73.8%
viability, T/C [9]: 89.2%
viability, T/C [10]: 88.7%
viability, T/C [11]: 98.2%
viability, T/C [12]: 82.2%
viability, T/C [13]: 63%
viability, T/C [14]: 56.9%
viability, T/C [15]: 55.3%
viability, T/C [16]: 75.8%
viability, T/C [17]: 77.4%
viability, T/C [18]: 73.3%
viability, T/C [19]: 36%
viability, T/C [20]: 34.6%
viability, T/C [21]: 34.9%
viability, T/C [22]: 45.1%
viability, T/C [23]: 45.1%
viability, T/C [24]: 42.8%
viability, T/C [25]: 19.2%
viability, T/C [26]: 17.3%
viability, T/C [27]: 22.8%
viability, T/C [28]: 17.3%
viability, T/C [29]: 20.8%
viability, T/C [30]: 15.9%
viability, T/C [31]: 5.1%
viability, T/C [32]: 5.86%
viability, T/C [33]: 5.59%
viability, T/C [34]: 5.93%
viability, T/C [35]: 7.35%
viability, T/C [36]: 3.61%

C#Cc1c(F)ccc2cc(O)cc(-c3ncc4c(N5CC6CCC(C5)N6)nc(OCC56CCCN5CC(F)C6)nc4c3F)c12 (stereo unspecified) + COc1c(OCCCN2CCOCC2)ccc2c3n(c(=NC(=O)c4cnc(N)nc4)nc12)CCN3
pIC50 (second compound 0.00316 µM): < 5.00
pIC50 (second compound 0.01 µM): < 5.00
pIC50 (second compound 0.0316 µM): 5.42
pIC50 (second compound 0.1 µM): > 7.50
pIC50 (second compound 0.316 µM): > 7.50
pIC50 (second compound 1 µM): > 7.50
viability, T/C [1]: 75.2%
viability, T/C [2]: 79.9%
viability, T/C [3]: 105%
viability, T/C [4]: 76.8%
viability, T/C [5]: 72.5%
viability, T/C [6]: 67%
viability, T/C [7]: 76.5%
viability, T/C [8]: 76.8%
viability, T/C [9]: 72.2%
viability, T/C [10]: 70%
viability, T/C [11]: 60.2%
viability, T/C [12]: 53.2%
viability, T/C [13]: 53.5%
viability, T/C [14]: 62%
viability, T/C [15]: 53.7%
viability, T/C [16]: 57.2%
viability, T/C [17]: 52.7%
viability, T/C [18]: 34.9%
viability, T/C [19]: 40.4%
viability, T/C [20]: 37.9%
viability, T/C [21]: 36.5%
viability, T/C [22]: 32.8%
viability, T/C [23]: 37.6%
viability, T/C [24]: 18.4%
viability, T/C [25]: 16.9%
viability, T/C [26]: 15.7%
viability, T/C [27]: 13.2%
viability, T/C [28]: 15.3%
viability, T/C [29]: 12.9%
viability, T/C [30]: 4.25%
viability, T/C [31]: 4.39%
viability, T/C [32]: 4.93%
viability, T/C [33]: 4.55%
viability, T/C [34]: 4.71%
viability, T/C [35]: 2.91%
viability, T/C [36]: 0.25%

CCCS(=O)(=O)Nc1ccc(F)c(C(=O)c2c[nH]c3ncc(-c4ccc(Cl)cc4)cc23)c1F + Cc1nc(NC(=O)N2CCCC2C(N)=O)sc1-c1ccnc(C(C)(C)C(F)(F)F)c1
pIC50 (second compound 0.0316 µM): 5.29
pIC50 (second compound 0.1 µM): 5.32
pIC50 (second compound 0.316 µM): 5.38
pIC50 (second compound 1 µM): 5.46
pIC50 (second compound 3.16 µM): 7.50
pIC50 (second compound 10 µM): > 7.50
viability, T/C [13]: 94.2%
viability, T/C [14]: 95.6%
viability, T/C [15]: 79.9%
viability, T/C [16]: 84.7%
viability, T/C [17]: 83.7%
viability, T/C [18]: 4.52%
viability, T/C [19]: 84.3%
viability, T/C [20]: 84.3%
viability, T/C [21]: 86.2%
viability, T/C [22]: 96.3%
viability, T/C [23]: 75.1%
viability, T/C [24]: 3.91%
viability, T/C [25]: 73.2%
viability, T/C [26]: 62%
viability, T/C [27]: 80.9%
viability, T/C [28]: 78.2%
viability, T/C [29]: 63.4%
viability, T/C [30]: 5.17%
viability, T/C [31]: 58.1%
viability, T/C [32]: 52.7%
viability, T/C [33]: 64.8%
viability, T/C [34]: 57.5%
viability, T/C [35]: 54.2%
viability, T/C [36]: 4.7%
viability, T/C (second compound 3.16 µM, first compound 0.0316 µM): 52.2%
viability, T/C (second compound 3.16 µM, first compound 0.1 µM): 38.9%
viability, T/C (second compound 3.16 µM, first compound 0.316 µM): 50.9%
viability, T/C (second compound 3.16 µM, first compound 1 µM): 54.1%
viability, T/C (second compound 3.16 µM, first compound 3.16 µM): 37.2%
viability, T/C (second compound 3.16 µM, first compound 10 µM): 7.19%
viability, T/C (second compound 10 µM, first compound 0.0316 µM): 39.7%
viability, T/C (second compound 10 µM, first compound 0.1 µM): 35.7%
viability, T/C (second compound 10 µM, first compound 0.316 µM): 43.7%
viability, T/C (second compound 10 µM, first compound 1 µM): 37.8%
viability, T/C (second compound 10 µM, first compound 3.16 µM): 21.2%
viability, T/C (second compound 10 µM, first compound 10 µM): 4.33%
